A short description of this data set: Kinetic study between CB—OH and CB-Ring by 1H NMR. In kind it is physicochemical. The following applies: for half-life of CB-Ring (hydrolysis to CB—OH): buffer. The protocol:
Kinetic study between CB—OH and CB-Ring. The equilibrium conversion between the CB—OH and CB-Ring was monitored by ^1H NMR at various time points. To monitor the formation of CB-Ring, CB—OH powder was initially dissolved in TFA-d at a concentration of 0.2 M. The conversion from CB-Ring to CB—OH was studied by dissolving CB-Ring in either pH 7.3 or pH 10 buffer at a concentration of 0.2 M. These two buffers were made from 200 mM Na2CO3 in D2O and were titrated with DCl. Conversion was calculated based on the ratio of the characteristic peak for CB-Ring (1H, CH2═C(CH3)COOCH2CH(O—)CH2—) and a common peak of both structures (6H, —CH2N(CH3)2CH2—). In FIG. 5, the final conversion within 160 min was about 93% for all three conditions investigated. Because the integration error for ^1H NMR can be as large as 10%, a value of 93% essentially represented an almost full conversion.
Kinetic study between CB—OH and CB-Ring in acetic acid/pH=7.3 buffer. ^1H NMR was used to monitor the equilibrium conversion between the CB—OH and CB-Ring. CB—OH monomer was initially dissolved in [D]acetic acid at a concentration of 0.2 M. At various time points, the spectra were collected, and composition for the formed CB-Ring was calculated based on the ratio of the characteristic peaks for CB-Ring and CB—OH (FIG. 16). The equilibrated product (a mixture of CB-Ring and CB—OH) in [D]acetic acid was precipitated in ethyl ether, vacuum dried, and placed into pH=7.3 buffer made from 200 mM Na2CO3 in D2O titrated with DCl. CB-Ring was hydrolyzed to CB—OH at this condition and the composition for the CB-Ring at various time points were measured (FIG. 16).

These results are taken from patent US20120269870A1, “SWITCHABLE POLYMERS AND SURFACES WITH REVERSIBLY SWITCHABLE PROPERTIES” (University of Washington through its Center for …, priority 2011, published 2012).

For the compound `C=C(C)C(=O)OCC1C[N+](C)(C)CC(=O)O1` (centres unmarked) [CB-Ring, 2-(Methacryloyloxymethyl)-4,4-dimethyl-6-oxomorpholin-4-ium], the “half-life of CB-Ring (hydrolysis to CB—OH)” value is, setting by setting: (pH 7) “about 4 min”; (pH 10) less than 1 min. Further, the “final conversion to CB—OH within 160 min” value is listed as “about 93%” (pH 7.3 buffer (200 mM Na2CO3 in D2O titrated with DCl)) and “about 93%” (pH 10 buffer (200 mM Na2CO3 in D2O titrated with DCl)). The “time to nearly full conversion (hydrolysis) of CB-Ring back to CB—OH” value (pH 7.3 buffer, product equilibrated 40 h in [D]HAc) is reported as “less than 10 min”. Further, for the setting “pH 10”, the “time to complete conversion to the zwitterionic form” value is reported as “less than 6 min”.
As for `C=C(C)C(=O)OCC(O)C[N+](C)(C)CC(=O)[O-]` (centres unmarked) [CB—OH, 2-((2-Hydroxy-3-(methacryloyloxy)propyl)dimethylammonio)acetate], the “conversion of CB—OH to CB-ring (in words)” value (TFA, 1 h) is reported as “almost complete conversion”. The “time to full conversion into the CB-Ring structure” value (TFA-d) was no more than 2 h. Also, the half-life at 0.2 M (TFA-d solution, acidic environment, TFA-d / TFA, read-out: half-life of CB—OH (conversion to CB-Ring)) is roughly 14 min. Besides, for the setting “TFA-d, 0.2 M”, the “final conversion to CB-Ring within 160 min” value was “about 93%”. The “conversion of CB—OH to CB-Ring” value ([D]HAc (acetic acid), 0.2 M, 20 h) stood at 50%.

As usually defined, the half-life is the time in which the quantity being followed falls by half.
